Measured values as given in patent US20200270588A1, “GLUCOSYL TRANSFERASE POLYPEPTIDES AND METHODS OF USE” (Syngenta Participations AG, priority 2017, published 2020).
Several values for one entry are separate records, joined by “and”; a condition that tells them apart may be missing. Equal entries are not always repeated.

How the values were obtained:
Format in all cases: biochemical
[1] = molecular target: T1, SEQ ID 36, mutant bx-type glucosyl transferase (Zea mays, UniProt Q8W2B7, M283F/S121V/S338K); test: LC/MS glucosyl transferase assay (glucoside peak area), purified enzyme; conditions: about 60 min, ~15 pmol enzyme, relative quantification only
T1 construct: 36; 6.03E+06; 6.40E+09; 1.75E+08; His tag; made in house
Method: (§1) In an alternative method for assaying the various enzymes, the test glucosyl transferase enzyme is reacted with substrates exactly as above except that the assay is stopped by adding an equal volume of acetonitrile. Alternatively 50 or 100 μl samples from assay reactions are added to 500 μl ethyl acetate to stop the reaction. In this case samples are then vortexed and 400 μl of the ethyl acetate partition removed, dried down, and resuspended in 100 μl 80:20 acetonitrile/water. The formation of product gluco side and/or disappearance of substrate test herbicide is then monitored directly by LC/MS. Samples are analyzed by LC-MS using an Agilent 1290 liquid chromatography system and Thermo Q-Exactive mass spectrometer. The chromatography is achieved on a Waters Acquity C18 BEH (50×2.1 mm) 1.7 μm particle size column, using a 6 minute gradient run of Water (0.2% formic acid) and Acetonitrile. The Q-Exactive is operated in positive ionisation electrospray mode, using Full scan-AIF mode, at 35,000 resolution, between 100-800 m/z. All analytes are identified from the full scan data to within at least 5 ppm accuracy of their predicted pseudo-molecular ion [M+H]^+ m/z value. In order to obtain quantitative data standard curves are run using herbicides and herbicide glucosides synthesized as standards. Where these synthetic glucosides were not available the LC/MS assay could only be used to provide relative data.
(§2) DNA sequences, optimized for E. coli codon usage, were cloned, expressed and the various proteins purified and assayed as described in the foregoing examples. Using the UDP assay (as described in examples 1, 3 and 6) the data obtained from the Zea mays bx8 w/t protein and its variants was noisy due to relatively high background rates in DMSO reagent blanks. The values reported in the table 15 were thus monitored by LC/MS as described in example 1.

[2] = molecular target: T2, SEQ ID 34, mutant bx-type glucosyl transferase (Zea mays, UniProt Q8W2B7, V367W); test: as above; conditions: about 60 min, ~15 pmol enzyme, relative quantification only
T2 construct: 34; 2.45E+05; 2.17E+07; 5.21E+06; His tag; made in house
Method: as §1, §2

[3] = molecular target: T3, SEQ ID 32, mutant bx-type glucosyl transferase (Zea mays, UniProt Q8W2B7, M283F); test: as above; conditions: about 60 min, ~15 pmol enzyme, relative quantification only
T3 construct: 32; 9.98E+05; 1.75E+08; 8.33E+06; His tag; made in house
Method: as §1, §2

[4] = molecular target: T4, SEQ ID NO 21, mutant of Zea mays bx9 glucosyl transferase (Zea mays, UniProt B4G072, A334K/F21Y/L194V/M279F/S117V); test: UDP-Glo glucosyl transferase assay, purified enzyme; conditions: lower block, concentration printed only in upper block: V 0.300, VII 0.210; IV, VIII, XI, XXI, XX, XVIII, XVI, XV, XIV 0.200; others 1.000 mM
T4 construct: His tag (C); made in house
T4 sequence (B4G072 whole entry F21Y/S117V/L194V/M279F/A334K): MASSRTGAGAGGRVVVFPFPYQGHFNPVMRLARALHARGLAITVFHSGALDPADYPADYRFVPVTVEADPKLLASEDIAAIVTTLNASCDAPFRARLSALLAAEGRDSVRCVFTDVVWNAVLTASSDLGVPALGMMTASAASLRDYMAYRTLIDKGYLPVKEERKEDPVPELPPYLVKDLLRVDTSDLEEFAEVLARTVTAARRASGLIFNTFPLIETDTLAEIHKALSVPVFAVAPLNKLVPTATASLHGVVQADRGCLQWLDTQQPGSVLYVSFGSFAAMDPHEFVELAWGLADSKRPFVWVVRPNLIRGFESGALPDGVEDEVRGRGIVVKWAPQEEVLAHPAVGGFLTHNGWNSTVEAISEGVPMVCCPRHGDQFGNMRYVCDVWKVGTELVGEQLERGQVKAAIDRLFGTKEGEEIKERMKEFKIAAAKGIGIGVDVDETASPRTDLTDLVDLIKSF

T2 sequence (Q8W2B7 whole entry V367W): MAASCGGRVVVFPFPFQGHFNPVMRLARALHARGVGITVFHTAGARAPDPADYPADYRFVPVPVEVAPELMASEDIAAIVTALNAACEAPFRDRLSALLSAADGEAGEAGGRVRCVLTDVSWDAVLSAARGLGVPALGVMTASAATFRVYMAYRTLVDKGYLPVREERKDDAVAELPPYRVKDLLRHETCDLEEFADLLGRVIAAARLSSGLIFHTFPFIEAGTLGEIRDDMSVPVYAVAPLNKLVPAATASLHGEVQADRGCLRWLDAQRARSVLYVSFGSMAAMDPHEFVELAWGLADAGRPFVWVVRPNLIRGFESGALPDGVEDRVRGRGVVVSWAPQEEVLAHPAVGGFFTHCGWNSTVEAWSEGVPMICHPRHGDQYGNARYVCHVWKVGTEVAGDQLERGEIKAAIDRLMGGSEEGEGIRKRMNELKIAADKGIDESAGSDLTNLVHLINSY
T3 sequence (Q8W2B7 whole entry M283F): as the sequence (Q8W2B7 whole entry V367W) above, with M283F, W367V counted along it
T1 sequence (Q8W2B7 whole entry S121V/M283F/S338K): as the sequence (Q8W2B7 whole entry V367W) above, with S121V, M283F, S338K, W367V counted along it

Row | SMILES | integrated peak area of beta-glucoside product [1] | integrated peak area of beta-glucoside product [2] | integrated peak area of beta-glucoside product [3] | Activity [4]
1 | CN1CC(O)N(c2cc(C(F)(F)F)ccn2)C1=O (stereo not drawn) [Compound V] | 1.75E+08 and 1.96E+08 | 5.21E+06 and 4.16E+06 | 8.33E+06 and 6.18E+06 | 1.548 pmol/sec/pmol enzyme
2 | Cc1cnc(N2C(=O)N(C)CC2O)cc1C(F)(F)F (stereo not drawn) [XVIII] | – | – | – | 0.425 pmol/sec/pmol enzyme
3 | CN1CC(O)N(c2cc(C(F)(F)F)c(Cl)cn2)C1=O (stereo not drawn) [XI] | 6.03E+06 and 6.40E+06 | 2.45E+05 | 9.98E+05 and 1.08E+06 | 0.374 pmol/sec/pmol enzyme
4 | CON1C(=O)N(c2cc(C(F)(F)F)ccn2)C(O)[C@@H]1C (stereo partly drawn) [Compound VI] | 6.40E+09 and 6.87E+09 | 2.17E+07 and 2.00E+07 | 1.75E+08 and 1.89E+08 | –
